According to the supplement of paper PMC10307832:

Assays:
Test in all cases: relative viability (nuclei count vs DMSO), 5 days (fraction); higher = more cells survive
ABC-1 = system: ABC-1
Outline: (§1)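 For relative viability, nuclei counts in treated wells were divided by those in vehicle wells. Lung cancer cell lines had been pin-tool dosed in 1536-well plates the day after seeding and cultured for 5 days, then fixed and stained in one step (final 0.05% Triton X-100, 1% formaldehyde, 1 ug/ml Hoechst) and imaged at 4×. Doses were one drug alone or a fixed anchor-drug dose plus five library-drug doses (not always all listed) in √10 steps, and values are duplicate-plate medians.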

CAL-12T = system: CAL-12T
Outline: as §1

COR-L23 = system: COR-L23
Outline: as §1

EKVX = system: EKVX
Outline: as §1

H3255 = system: H3255
Outline: as §1

HCC-15 = system: HCC-15
Outline: as §1

HCC-827 = system: HCC-827
Outline: as §1

LK-2 = system: LK-2
Outline: as §1

NCI-H1355 = system: NCI-H1355
Outline: as §1

NCI-H1437 = system: NCI-H1437
Outline: as §1

NCI-H1650 = system: NCI-H1650
Outline: as §1

NCI-H1651 = system: NCI-H1651
Outline: as §1

NCI-H1734 = system: NCI-H1734
Outline: as §1

NCI-H2228 = system: NCI-H2228
Outline: as §1

NCI-H2405 = system: NCI-H2405
Outline: as §1

NCI-H322M = system: NCI-H322M
Outline: as §1

NCI-H520 = system: NCI-H520
Outline: as §1

NCI-H661 = system: NCI-H661
Outline: as §1

PC-14 = system: PC-14
Outline: as §1

PC-3 [JPC-3] = system: PC-3 [JPC-3]
Outline: as §1

RERF-LC-KJ = system: RERF-LC-KJ
Outline: as §1

SK-MES-1 = system: SK-MES-1
Outline: as §1

SW 1573 = system: SW 1573
Outline: as §1

With `COc1cc(N2CCC(C(N)=O)CC2)ccc1Nc1nc(N)c(Cl)c(Nc2ccccc2S(=O)(=O)C(C)C)n1` [HG-5-88-01] + O=C(c1cc(Cc2n[nH]c(=O)c3ccccc23)ccc1F)N1CCN(C(=O)C2CC2)CC1 [Olaparib] (partner 8 µM) the relative viability (ABC-1; first compound 0.04 µM) was 1, the relative viability (ABC-1; first compound 0.1265 µM) was 0.494 and the relative viability (ABC-1; first compound 0.4 µM) was 0.688. The relative viability (ABC-1; first compound 1.265 µM) was 0.686, the relative viability (ABC-1; first compound 4 µM) was 0.589 and the relative viability (CAL-12T; first compound 0.04 µM) was 0.733. It also gave a relative viability (CAL-12T; first compound 0.1265 µM) of 0.779, a relative viability (CAL-12T; first compound 0.4 µM) of 0.787 and a relative viability (CAL-12T; first compound 1.265 µM) of 0.667. The relative viability (CAL-12T; first compound 4 µM) was 0.319, the relative viability (COR-L23; first compound 0.04 µM) was 0.336 and the relative viability (COR-L23; first compound 0.1265 µM) was 0.386. The relative viability (COR-L23; first compound 0.4 µM) was 0.28, the relative viability (COR-L23; first compound 1.265 µM) was 0.319 and the relative viability (COR-L23; first compound 4 µM) was 0.246. It also gave a relative viability (EKVX; first compound 0.04 µM) of 0.896, a relative viability (EKVX; first compound 0.1265 µM) of 0.955 and a relative viability (EKVX; first compound 0.4 µM) of 0.813. The relative viability (EKVX; first compound 4 µM) was 0.633, the relative viability (H3255; first compound 0.04 µM) was 0.556 and the relative viability (H3255; first compound 0.1265 µM) was 0.593. It also gave a relative viability (H3255; first compound 0.4 µM) of 0.555, a relative viability (H3255; first compound 4 µM) of 0.531 and a relative viability (HCC-15; first compound 0.04 µM) of 0.738. It also gave a relative viability (HCC-15; first compound 0.1265 µM) of 0.616, a relative viability (HCC-15; first compound 0.4 µM) of 0.883 and a relative viability (HCC-15; first compound 1.265 µM) of 0.707. The relative viability (HCC-15; first compound 4 µM) was 0.7, the relative viability (HCC-827; first compound 0.04 µM) was 0.695 and the relative viability (HCC-827; first compound 0.1265 µM) was 0.676. The relative viability (HCC-827; first compound 0.4 µM) was 0.363, the relative viability (HCC-827; first compound 1.265 µM) was 0.203 and the relative viability (HCC-827; first compound 4 µM) was 0.24. It also gave a relative viability (LK-2; first compound 0.04 µM) of 0.941, a relative viability (LK-2; first compound 0.1265 µM) of 0.645 and a relative viability (LK-2; first compound 0.4 µM) of 0.718. The relative viability (LK-2; first compound 4 µM) was 0.501, the relative viability (NCI-H1355; first compound 0.04 µM) was 0.833 and the relative viability (NCI-H1355; first compound 0.1265 µM) was 0.768. It also gave a relative viability (NCI-H1355; first compound 0.4 µM) of 0.74, a relative viability (NCI-H1355; first compound 1.265 µM) of 0.706 and a relative viability (NCI-H1355; first compound 4 µM) of 0.584. It also gave a relative viability (NCI-H1437; first compound 0.04 µM) of 0.645, a relative viability (NCI-H1437; first compound 0.1265 µM) of 0.609 and a relative viability (NCI-H1437; first compound 0.4 µM) of 0.607. The relative viability (NCI-H1437; first compound 1.265 µM) was 0.631, the relative viability (NCI-H1437; first compound 4 µM) was 0.557 and the relative viability (NCI-H1650; first compound 0.04 µM) was 0.729. It also gave a relative viability (NCI-H1650; first compound 0.1265 µM) of 0.753, a relative viability (NCI-H1650; first compound 0.4 µM) of 0.969 and a relative viability (NCI-H1650; first compound 1.265 µM) of 0.65. The relative viability (NCI-H1650; first compound 4 µM) was 0.837, the relative viability (NCI-H1651; first compound 0.04 µM) was 0.189 and the relative viability (NCI-H1651; first compound 0.1265 µM) was 0.199. For the same compound, the relative viability (NCI-H1651; first compound 0.4 µM) was 0.176, the relative viability (NCI-H1651; first compound 1.265 µM) was 0.234 and the relative viability (NCI-H1651; first compound 4 µM) was 0.164. It also gave a relative viability (NCI-H1734; first compound 0.04 µM) of 0.681, a relative viability (NCI-H1734; first compound 0.1265 µM) of 0.583 and a relative viability (NCI-H1734; first compound 0.4 µM) of 0.642. It also gave a relative viability (NCI-H1734; first compound 1.265 µM) of 0.54, a relative viability (NCI-H1734; first compound 4 µM) of 0.558 and a relative viability (NCI-H2228; first compound 0.04 µM) of 0.538. It also gave a relative viability (NCI-H2228; first compound 0.1265 µM) of 0.36, a relative viability (NCI-H2228; first compound 0.4 µM) of 0.424 and a relative viability (NCI-H2228; first compound 1.265 µM) of 0.227. For the same compound, the relative viability (NCI-H2228; first compound 4 µM) was 0.253, the relative viability (NCI-H2405; first compound 0.04 µM) was 0.885 and the relative viability (NCI-H2405; first compound 0.1265 µM) was 0.904. The relative viability (NCI-H2405; first compound 0.4 µM) was 0.807, the relative viability (NCI-H2405; first compound 1.265 µM) was 0.524 and the relative viability (NCI-H2405; first compound 4 µM) was 0.75. The relative viability (NCI-H322M; first compound 0.04 µM) was 0.809, the relative viability (NCI-H322M; first compound 0.1265 µM) was 0.699 and the relative viability (NCI-H322M; first compound 0.4 µM) was 0.913. For the same compound, the relative viability (NCI-H322M; first compound 1.265 µM) was 0.485, the relative viability (NCI-H322M; first compound 4 µM) was 0.686 and the relative viability (NCI-H520; first compound 0.04 µM) was 0.289. For the same compound, the relative viability (NCI-H520; first compound 0.1265 µM) was 0.33, the relative viability (NCI-H520; first compound 0.4 µM) was 0.389 and the relative viability (NCI-H520; first compound 1.265 µM) was 0.327. For the same compound, the relative viability (NCI-H520; first compound 4 µM) was 0.363, the relative viability (NCI-H661; first compound 0.04 µM) was 0.707 and the relative viability (NCI-H661; first compound 0.1265 µM) was 0.779. It also gave a relative viability (NCI-H661; first compound 0.4 µM) of 0.8, a relative viability (NCI-H661; first compound 1.265 µM) of 0.716 and a relative viability (NCI-H661; first compound 4 µM) of 0.845. It also gave a relative viability (PC-14; first compound 0.04 µM) of 0.257, a relative viability (PC-14; first compound 0.1265 µM) of 0.339 and a relative viability (PC-14; first compound 0.4 µM) of 0.321. For the same compound, the relative viability (PC-14; first compound 1.265 µM) was 0.307, the relative viability (PC-14; first compound 4 µM) was 0.0752 and the relative viability (PC-3 [JPC-3]; first compound 0.04 µM) was 1.15. The relative viability (PC-3 [JPC-3]; first compound 0.1265 µM) was 1.14, the relative viability (PC-3 [JPC-3]; first compound 0.4 µM) was 1.04 and the relative viability (PC-3 [JPC-3]; first compound 1.265 µM) was 0.379. It also gave a relative viability (PC-3 [JPC-3]; first compound 4 µM) of 0.506, a relative viability (RERF-LC-KJ; first compound 0.04 µM) of 0.937 and a relative viability (RERF-LC-KJ; first compound 0.1265 µM) of 0.957. The relative viability (RERF-LC-KJ; first compound 0.4 µM) was 0.878, the relative viability (RERF-LC-KJ; first compound 1.265 µM) was 0.884 and the relative viability (RERF-LC-KJ; first compound 4 µM) was 0.519. It also gave a relative viability (SK-MES-1; first compound 0.04 µM) of 0.657, a relative viability (SK-MES-1; first compound 0.1265 µM) of 0.658 and a relative viability (SK-MES-1; first compound 0.4 µM) of 0.689. It also gave a relative viability (SK-MES-1; first compound 1.265 µM) of 0.508, a relative viability (SK-MES-1; first compound 4 µM) of 0.564 and a relative viability (SW 1573; first compound 0.04 µM) of 0.562. For the same compound, the relative viability (SW 1573; first compound 0.1265 µM) was 0.554, the relative viability (SW 1573; first compound 0.4 µM) was 0.438 and the relative viability (SW 1573; first compound 1.265 µM) was 0.368. The relative viability (SW 1573; first compound 4 µM) was 0.375.
